# Read-outs that look alike come from different tables or passages of the source.
# Legend:
# GRK2 = molecular target: T1, GRK2 (Homo sapiens, UniProt P25098); assay: ADPGlo GRK2 Inhibition Assay (Example 8); type: biochemical; settings: read-out: A: Enzymatic GRK2: IC50 (nM) (Example 8)
# T1 construct: purchased SignalChem A14-10G
# T1 sequence (P25098 1-689): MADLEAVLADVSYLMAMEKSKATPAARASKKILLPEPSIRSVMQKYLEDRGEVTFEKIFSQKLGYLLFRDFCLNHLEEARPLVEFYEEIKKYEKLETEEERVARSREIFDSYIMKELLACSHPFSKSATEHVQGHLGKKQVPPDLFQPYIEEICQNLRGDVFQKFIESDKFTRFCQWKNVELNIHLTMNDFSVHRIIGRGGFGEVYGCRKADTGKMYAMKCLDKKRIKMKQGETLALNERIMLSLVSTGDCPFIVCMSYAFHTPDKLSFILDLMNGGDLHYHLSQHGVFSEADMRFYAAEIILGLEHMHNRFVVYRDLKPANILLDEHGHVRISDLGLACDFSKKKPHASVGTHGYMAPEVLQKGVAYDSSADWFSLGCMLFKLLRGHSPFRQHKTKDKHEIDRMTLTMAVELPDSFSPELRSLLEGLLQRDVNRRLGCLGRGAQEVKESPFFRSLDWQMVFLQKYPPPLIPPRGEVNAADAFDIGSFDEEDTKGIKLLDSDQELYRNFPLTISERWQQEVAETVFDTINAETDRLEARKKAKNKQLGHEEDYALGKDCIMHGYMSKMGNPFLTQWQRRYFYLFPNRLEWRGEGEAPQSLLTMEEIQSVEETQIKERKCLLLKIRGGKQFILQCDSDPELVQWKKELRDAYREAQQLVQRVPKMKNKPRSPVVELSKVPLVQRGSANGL
# How it was run: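 GRK2 (15 nM 2× enzyme solution) was preincubated 15 min with compound, then reacted 180 min at room temperature with 2× mix of 20 μM ATP plus GRKtide in HEPES pH 7.5, MgCl2, Tween-20, DTT. ADP was detected by ADP-Glo luminescence. Percent inhibition was normalised to enzyme and no-enzyme controls, with dose-response curves from threefold dilutions starting at 100 μM.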
# [1] = system: PAXF1657 control empty vector cell line; assay: 7-day proliferation assay, PAXF1657 control empty vector cell line (Example 9); type: cell-based; settings: 168 h; Cell Line: PAXF1657 empty vector (EV) cell line; 7-day; read-out: C: 7-day proliferation assay: IC50 GeoMean
# How it was run: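 Cells plated at 500 per well and attached overnight. Next, 10-point inhibitor series added (30 μM-0.0002 μM, 0.3% DMSO) and a day-0 viability plate read. Then, after 3 days, medium with fresh compound. Finally, viability after 4 more days via CellTiter-Glo.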
# [2] = Enzyme Assay A, ADPGlo (Example 8)
SMILES,IC50 (GRK2; ADPGlo GRK2 enzyme assay),IC50 (GRK2; [2]),IC50 [1]
COc1cccc([C@@H](C)NC(=O)c2ccnc(NCc3nnc(-c4ccncn4)n3C)c2)c1,9.89 nM,,468 nM
Cc1cccnc1CNC(=O)c1cccc(NCc2nnc(-c3ccncc3)[nH]2)c1,12.2 nM,,> 30000 nM
C[C@H](NC(=O)c1cccc(NCc2nnc(-c3ccncn3)n2C)c1)c1cncs1,,410 nM,> 10000 nM
Cn1c(CNc2cccc(C(=O)NCc3cnccn3)c2)nnc1-c1ccncn1,,37 nM,> 30000 nM
O=C(NCc1nccc(C(F)F)n1)c1cccc(NCc2nnc(-c3ccncc3)[nH]2)c1,,27 nM,> 10000 nM
Cc1ocnc1CNC(=O)c1cccc(NCc2nnc(-c3ccncc3)[nH]2)c1,,8.3 nM,> 7500 nM
Cc1nnc(CNC(=O)c2cccc(NCc3nnc(-c4ccncc4)[nH]3)c2)n1C1CC1,,19 nM,> 10000 nM
CN(CCO)S(=O)(=O)c1ccccc1CNC(=O)c1cccc(NCc2nnc(-c3ccncn3)n2C)c1,42 nM,,> 11800 nM
Cc1noc(C)c1CNC(=O)c1cccc(NCc2nnc(-c3ccncn3)n2C)c1,,19 nM,173 nM
COc1cccc([C@H](C)NC(=O)c2cccc(NCc3nnc4n3CCOc3cnccc3-4)c2)c1,6.52 nM,,10100 nM
Cc1ccnc(CNC(=O)c2cccc(NCc3nnc(-c4ccncc4)[nH]3)c2)n1,,15 nM,> 10000 nM
Cc1ccn2c(CNC(=O)c3cccc(NCc4nnc(-c5ccncn5)n4C)c3)nnc2c1,,14 nM,> 30000 nM
O=C(NCc1cn[nH]c1C(F)F)c1cccc(NCc2nnc(-c3ccncc3)[nH]2)c1,,19 nM,> 10000 nM
Cc1cnc(C(C)NC(=O)c2cccc(NCc3nnc(-c4ccncc4)[nH]3)c2)o1 (centres unmarked),,16 nM,> 10000 nM
COc1cccc([C@@H](C)NC(=O)c2cccc(NCc3nnc(-c4ccncn4)n3CCO)c2)c1,4.91 nM,,1230 nM
COc1ccc(CNC(=O)c2cccc(NCc3nnc(-c4ccncn4)n3C)c2)c(OC)n1,37.2 nM,,797 nM
Cn1cc(-c2cc(CNC(=O)c3cccc(NCc4nnc(-c5ccncn5)n4C)c3)ccn2)cn1,,17 nM,> 30000 nM
C[C@H](NC(=O)c1cccc(NCc2nnc(-c3ccncc3)n2CCO)c1)c1ncccc1Cl,28.3 nM,,80.9 nM
Cn1c(CNc2cccc(C(=O)NCc3cnn(CCF)c3)c2)nnc1-c1ccncn1,82.9 nM,,> 5600 nM
CN(C)S(=O)(=O)c1ccccc1CNC(=O)c1cccc(NCc2nnc(-c3ccncn3)n2C)c1,47.2 nM,,21500 nM
Cc1ccccc1[C@@H](C#N)NC(=O)c1cccc(NCc2nnc(-c3ccncn3)n2C)c1,4.97 nM,,35.5 nM
CCCn1c(CNc2cccc(C(=O)N[C@H](C)c3cccc(OC)c3)c2)nnc1-c1ccncn1,40.1 nM,,> 219 nM
COc1ccncc1CNC(=O)c1cccc(NCc2nnc(-c3ccncn3)n2C)c1,28.1 nM,,5090 nM
Cc1cccc2ncc(CNC(=O)c3cccc(NCc4nnc(-c5ccncc5F)n4C)c3)n12,3.91 nM,,> 1360 nM
C[C@H](NC(=O)c1cccc(NCc2nnc(-c3ccncc3)n2C)c1)c1ncccc1Cl,2.97 nM,,> 1850 nM
Cn1c(CNc2cccc(C(=O)NCc3cccnc3OC(F)F)c2)nnc1-c1ccncn1,16.7 nM,,1440 nM
CC(NC(=O)c1cccc(NCc2nnc(-c3ccncn3)n2C)c1)c1ccccn1 (centres unmarked),,29 nM,522 nM
CC(C)C(NC(=O)c1cccc(NCc2nnc(-c3ccncn3)n2C)c1)c1ccncc1 (centres unmarked),,32 nM,1170 nM
Cc1nc(C(C)NC(=O)c2cccc(NCc3nnc(-c4ccncn4)n3C)c2)no1 (centres unmarked),,67 nM,> 30000 nM

# More lines, main results first:
IC50 (GRK2; ADPGlo GRK2 enzyme assay),IC50 (GRK2; [2]),SMILES,IC50 [1]
,11 nM,Cn1c(CNc2cccc(C(=O)N[C@H]3CCOc4c(F)cccc43)c2)nnc1-c1ccncn1,1230 nM
,200 nM,Cn1c(CNc2cccc(C(=O)NC3(c4cccnc4)CC3)c2)nnc1-c1ccncn1,583 nM
9.78 nM,,Cn1c(CNc2cccc(C(=O)NCc3cccc4c3NC(=O)CO4)c2)nnc1-c1ccncn1,2990 nM
,33 nM,Cn1c(CNc2cccc(C(=O)NCc3ccncc3C(F)(F)F)c2)nnc1-c1ccncn1,> 10000 nM
,30 nM,Cn1c(CNc2cccc(C(=O)NCc3cccc(C#N)c3F)c2)nnc1-c1ccncn1,> 10000 nM
,9.4 nM,CC(NC(=O)c1cccc(NCc2nnc(-c3ccncn3)n2C)c1)c1ncccc1Br (centres unmarked),> 10000 nM
,17 nM,Cn1c(CNc2cccc(C(=O)NCc3ncccc3C(F)(F)F)c2)nnc1-c1ccncn1,> 10000 nM
,111 nM,Cn1c(CNc2cccc(C(=O)N[C@H]3COc4cc(F)ccc43)c2)nnc1-c1ccncc1F,> 30000 nM
20.2 nM,,Cn1c(CNc2cccc(C(=O)NC3CS(=O)(=O)c4ccccc43)c2)nnc1-c1ccncn1 (centres unmarked),1440 nM
,200 nM,COc1ccnc(CNC(=O)c2cccc(NCc3nnc(-c4ccncn4)n3C)c2)c1F,> 10000 nM
48.2 nM,,Cn1c(CNc2cccc(C(=O)NCc3ncccc3Cl)c2)nnc1-c1ccncn1,> 16400 nM
,17 nM,Cn1c(CNc2cccc(C(=O)NCc3ccnc(OCC(F)(F)F)c3)c2)nnc1-c1ccncn1 [drawing 339],3760 nM
,25.8 nM,Cn1c(CNc2cccc(C(=O)N[C@@H]3COc4cc(F)ccc43)c2)nnc1-c1ccncn1,117 nM
,10.5 nM,CCCn1c(CNc2cccc(C(=O)N[C@H]3COc4cc(F)ccc43)c2)nnc1-c1ccncn1,> 30000 nM
46.4 nM,,C#Cc1ccccc1CNC(=O)c1cccc(NCc2nnc(-c3ccncn3)n2C)c1,2320 nM
50 nM,,Cn1c(CNc2cccc(C(=O)NCc3ccccc3N3CCOCC3)c2)nnc1-c1ccncn1,3250 nM
,43 nM,Cn1c(CNc2cccc(C(=O)NCc3ccnnc3)c2)nnc1-c1ccncn1,> 30000 nM
,16 nM,COc1cccc(F)c1CNC(=O)c1cccc(NCc2nnc(-c3ccncn3)n2C)c1,149 nM

IC50 (GRK2; ADPGlo GRK2 enzyme assay),IC50 (GRK2; [2]),SMILES,IC50 [1]
,8.09 nM,Cn1c(CNc2cccc(C(=O)N[C@@H]3CCOc4ccc(C(F)(F)F)cc43)c2)nnc1-c1ccncn1,594 nM
19.2 nM,,Cn1c(CNc2cccc(C(=O)NCc3c(F)ccc4[nH]cnc34)c2)nnc1-c1ccncn1,22600 nM
17.6 nM,,Cn1c(CNc2cccc(C(=O)NCc3cc(C#N)ccc3F)c2)nnc1-c1ccncn1,> 1280 nM
,54 nM,COc1cc(F)cc(CNC(=O)c2cccc(NCc3nnc(-c4ccncn4)n3C)c2)c1,> 10000 nM
,22 nM,Cn1c(CNc2cccc(C(=O)NC(c3ccncc3)C3CCC3)c2)nnc1-c1ccncn1 (centres unmarked),136 nM
,49 nM,Cn1c(CNc2cccc(C(=O)NC(C)(C)c3ccncc3)c2)nnc1-c1ccncn1,> 10000 nM
69 nM,,CC(NC(=O)c1cccc(NCc2nnc(-c3ccncn3)n2C)c1)c1ncccc1F (centres unmarked),2660 nM
,27.5 nM,Cn1c(CNc2cccc(C(=O)N[C@@H]3CCOc4c(Cl)cccc43)c2)nnc1-c1ccncc1,> 865 nM
21 nM,,CN1CC[C@@H](NC(=O)c2cccc(NCc3nnc(-c4ccncn4)n3C)c2)c2ccccc21,> 30000 nM
74 nM,,Cc1ccc(C(C)NC(=O)c2cccc(NCc3nnc(-c4ccncn4)n3C)c2)nc1 (centres unmarked),> 5020 nM
,3.84 nM,O=C(N[C@H]1COc2cc(F)ccc21)c1cccc(NCc2nnc(-c3ccncn3)n2CCO)c1,256 nM
,16 nM,Cn1c(CNc2cccc(C(=O)NCc3cccc(F)c3F)c2)nnc1-c1ccncn1,> 10000 nM
,34 nM,Cn1c(CNc2cccc(C(=O)NC3(c4ccccc4)CC3)c2)nnc1-c1ccncn1,> 10000 nM
68.9 nM,,Cn1c(CNc2cccc(C(=O)NC(c3ccccn3)C3CC3)c2)nnc1-c1ccncn1 (centres unmarked),2630 nM
66 nM,,Cn1c(CNc2cccc(C(=O)N[C@H]3COCc4ccccc43)c2)nnc1-c1ccncn1,> 11800 nM
,100 nM,Cn1c(CNc2cccc(C(=O)NC3(c4ccncn4)CC3)c2)nnc1-c1ccncn1,726 nM
64.2 nM,,Cn1c(CNc2cccc(C(=O)NCc3ccc(C(F)F)cc3)c2)nnc1-c1ccncn1,> 13100 nM
